# Source: patent US10111875B2, “Pyrrolopyrimidine compounds and uses thereof” (HUTCHISON MEDIPHARMA LIMITED, priority 2010, dated 2018)
# Biological target: Recombinant human JAK1 catalytic domain (Homo sapiens (Human), UniProt P23458)
# Test: JAK1 kinase assay (Z'-LYTE Tyr 6 Peptide)
# Format: biochemical
# Conditions: JAK1 kinase assay, 0.3 uM concentration; read-out: inhibition percentage (IR %)
# Protocol: JAK1/2/3 kinase assay are performed in vitro using Kit-Tyr 6 Peptide (Invitrogen, Cat. No. PV4122). TYK2 kinase assay are performed in vitro using Z′-LYTE™ Kinase Assay Kit-Tyr 3 Peptide (Invitrogen, Cat. No. PV3192). […] All compounds are initially tested at 8 different concentrations (1 μM down to 0.0003 μM) using a 1:3 serial dilution scheme.
# Sequence of Recombinant human JAK1 catalytic domain (P23458 875-1153): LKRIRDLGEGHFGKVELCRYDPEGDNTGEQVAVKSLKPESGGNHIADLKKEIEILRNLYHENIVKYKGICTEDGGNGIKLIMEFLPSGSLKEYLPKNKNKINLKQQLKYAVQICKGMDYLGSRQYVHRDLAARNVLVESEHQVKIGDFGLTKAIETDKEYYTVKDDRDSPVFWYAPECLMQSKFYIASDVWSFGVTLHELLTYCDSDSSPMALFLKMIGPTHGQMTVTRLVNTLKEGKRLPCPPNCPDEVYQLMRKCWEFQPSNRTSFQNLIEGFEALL
row,SMILES,inhibition at 0.3 µM
1,CC(C)S(=O)(=O)Nc1ccc(N(C)[C@@H]2CCN(c3ncnc4[nH]ccc34)C2)nc1 [Compound 218],50 to 100%
2,CN(c1ccc(NS(=O)(=O)c2cc(F)ccc2F)cn1)[C@@H]1CCN(c2ncnc3[nH]ccc23)C1 [Compound 213],20 to 50%
3,CN(c1ccc(NS(=O)(=O)Cc2cccc(Cl)c2)cn1)[C@@H]1CCN(c2ncnc3[nH]ccc23)C1 [Compound 224],50 to 100%
4,CN(c1ccc(NS(=O)(=O)Cc2ccccc2F)cn1)[C@@H]1CCN(c2ncnc3[nH]ccc23)C1 [Compound 219],50 to 100%
5,CN(c1ccc(S(=O)(=O)NCCO)cn1)[C@@H]1CCN(c2ncnc3[nH]ccc23)C1 [Compound 243],50 to 100%
6,CN(c1ccc(S(=O)(=O)NC2COC2)cn1)[C@@H]1CCN(c2ncnc3[nH]ccc23)C1 [Compound 242],50 to 100%
7,N#Cc1ccc2c(c1)CCN2C1CCN(c2ncnc3[nH]ccc23)C1 (stereo not shown) [Compound 46],50 to 100%
8,CN(c1ccc(NS(=O)(=O)c2ccc(F)cc2)cn1)[C@@H]1CCN(c2ncnc3[nH]ccc23)C1 [Compound 212],50 to 100%
9,CN(c1c(F)cc(C(=O)N[C@@H](CO)c2ccccc2)cc1F)[C@@H]1CCN(c2ncnc3[nH]ccc23)C1 [Compound 208],50 to 100%
10,CN(c1ccc(S(=O)(=O)N2CCCC2)cn1)[C@@H]1CCN(c2ncnc3[nH]ccc23)C1 [Compound 247],50 to 100%
11,CN(c1ccc(C(=O)NC2c3ccccc3CC2O)cc1F)[C@@H]1CCN(c2ncnc3[nH]ccc23)C1 (stereo partly shown) [Compound 184],50 to 100%
12,CCNS(=O)(=O)c1ccc(N(C)[C@@H]2CCN(c3ncnc4[nH]ccc34)C2)nc1 [Compound 240],50 to 100%
13,CN(C1CCCC1)[C@@H]1CCN(c2ncnc3[nH]ccc23)C1 [Compound 53],50 to 100%
14,CN([C@@H]1CCN(c2ncnc3[nH]ccc23)C1)S(=O)(=O)C1CCCCC1 [Compound 28],50 to 100%
15,CN(c1ccc(NC(=O)c2cccc(F)c2)cn1)[C@@H]1CCN(c2ncnc3[nH]ccc23)C1 [Compound 226],50 to 100%
16,CN([C@@H]1CCN(c2ncnc3[nH]ccc23)C1)S(=O)(=O)c1c(F)cccc1F [Compound 43],20 to 50%
17,Cc1ccc(NC(=O)c2ccc(N(C)[C@@H]3CCN(c4ncnc5[nH]ccc45)C3)nc2)cc1 [Compound 186],50 to 100%
18,CN(C(=O)N1CCCC1C(F)(F)F)[C@@H]1CCN(c2ncnc3[nH]ccc23)C1 (stereo partly shown) [Compound 59],50 to 100%
19,CN(c1ncc([N+](=O)[O-])cc1Cl)[C@@H]1CCN(c2ncnc3[nH]ccc23)C1 [Compound 74],50 to 100%
20,COc1cc2ncnc(N(C)[C@@H]3CCN(c4ncnc5[nH]ccc45)C3)c2cc1OC [Compound 86],50 to 100%
21,CN(C(=O)c1cccnc1)[C@@H]1CCN(c2ncnc3[nH]ccc23)C1 [Compound 5],20 to 50%

row,SMILES,inhibition at 0.3 µM
1,CN(c1ccc(S(=O)(=O)N2CCNCC2)cn1)[C@@H]1CCN(c2ncnc3[nH]ccc23)C1 [Compound 251],50 to 100%
2,N#CCN(C1CCCC1)[C@@H]1CCN(c2ncnc3[nH]ccc23)C1 [Compound 45],50 to 100%
3,CC(C)S(=O)(=O)N(C)[C@@H]1CCN(c2ncnc3[nH]ccc23)C1 [Compound 49],50 to 100%
4,CN(c1ccn2nccc2n1)[C@@H]1CCN(c2ncnc3[nH]ccc23)C1 [Compound 88],20 to 50%
5,CN(c1ccc(C#N)cn1)[C@@H]1CCN(c2ccnc3[nH]ccc23)C1 [Compound 92],50 to 100%
6,C#CCN(C1CCCCC1)[C@@H]1CCN(c2ncnc3[nH]ccc23)C1 [Compound 54],20 to 50%
7,CN(c1ccc(C(=O)Nc2ccccc2F)cn1)[C@@H]1CCN(c2ncnc3[nH]ccc23)C1 [Compound 192],50 to 100%
8,COCC(=O)Nc1ccc(N(C)[C@@H]2CCN(c3ncnc4[nH]ccc34)C2)nc1 [Compound 228],20 to 50%
9,CN(c1ccc(NC(=O)C2CC2)cn1)[C@@H]1CCN(c2ncnc3[nH]ccc23)C1 [Compound 229],50 to 100%
10,CN(c1ccc(S(=O)(=O)N2CCOCC2)cn1)[C@@H]1CCN(c2ncnc3[nH]ccc23)C1 [Compound 252],50 to 100%
11,"CN(c1ccc2nn[nH]c2n1)[C@@H]1CCN(c2ncnc3[nH]ccc23)C1 [Compound 167, (R)—N-(1-(7H-pyrrolo[2,3-d]pyrimidin-4-yl)pyrrolidin-3-yl)-N-methyl-3H-[1,2,3]triazolo[4,5-b]pyridin-5-amine]",50 to 100%
12,"CN(c1ccc2[nH]c(=O)[nH]c2n1)[C@@H]1CCN(c2ncnc3[nH]ccc23)C1 [Compound 164, (R)-5-((1-(7H-pyrrolo[2,3-d]pyrimidin-4-yl)pyrrolidin-3-yl)(methyl)amino)-1H-imidazo[4,5-b]pyridin-2(3H)-one]",50 to 100%
13,CN(c1ccc(C(=O)NC(CO)c2ccc(Cl)cc2)cc1F)[C@@H]1CCN(c2ncnc3[nH]ccc23)C1 (stereo partly shown) [Compound 201],50 to 100%
14,CN(c1ccc(S(=O)(=O)NC2CCC[C@@H]2O)cn1)[C@@H]1CCN(c2ncnc3[nH]ccc23)C1 (stereo partly shown) [Compound 246],50 to 100%
15,CN(c1ccc(-c2ccc(C#N)cc2)cn1)[C@@H]1CCN(c2ncnc3[nH]ccc23)C1 [Compound 146],20 to 50%
16,CN(c1ccc(-c2cn[nH]c2)cn1)[C@@H]1CCN(c2ncnc3[nH]ccc23)C1 [Compound 150],50 to 100%
17,C[C@@H](NC(=O)c1ccc(N(C)[C@@H]2CCN(c3ncnc4[nH]ccc34)C2)nc1)c1ccccc1 [Compound 195],50 to 100%
18,CCCC(=O)N(C)[C@@H]1CCN(c2ncnc3[nH]ccc23)C1 [Compound 3],50 to 100%
19,CN(c1ccc(C(=O)NCc2ccccc2)cn1)[C@@H]1CCN(c2ncnc3[nH]ccc23)C1 [Compound 172],20 to 50%
20,CN(c1cnc(NCCO)cn1)[C@@H]1CCN(c2ncnc3[nH]ccc23)C1 [Compound 135],20 to 50%
21,CN(c1ccc(-c2nn[nH]n2)cc1F)[C@@H]1CCN(c2ncnc3[nH]ccc23)C1 [Compound 161],50 to 100%

# Continued, values first:
row,inhibition at 0.3 µM,SMILES
1,50 to 100%,CN(c1ncc(C#N)cc1[N+](=O)[O-])[C@@H]1CCN(c2ncnc3[nH]ccc23)C1 [Compound 96]
2,20 to 50%,"CN(c1ccc(-c2nn[nH]n2)cn1)[C@@H]1CCN(c2ncnc3[nH]ccc23)C1 [Compound 160, (R)—N-(1-(7H-pyrrolo[2,3-d]pyrimidin-4-yl)pyrrolidin-3-yl)-N-methyl-5-(2H-tetrazol-5-yl)pyridin-2-amine]"
3,50 to 100%,CN(c1c(F)cc(C#N)cc1F)[C@@H]1CCN(c2ncnc3[nH]ccc23)C1 [Compound 108]
4,50 to 100%,CN(c1ccc(Br)cn1)[C@@H]1CCN(c2ncnc3[nH]ccc23)C1 [Compound 68]
5,50 to 100%,CN(c1ccc(C#N)c(O)n1)[C@@H]1CCN(c2ncnc3[nH]ccc23)C1 [Compound 260]
6,50 to 100%,CN(c1ncc(C#N)s1)[C@@H]1CCN(c2ncnc3[nH]ccc23)C1 [Compound 95]
7,50 to 100%,Cc1ccc(N(C)[C@@H]2CCN(c3ncnc4[nH]ccc34)C2)nc1 [Compound 101]
8,50 to 100%,"CN(c1ccc(C#N)cc1F)[C@@H]1CCN(c2ncnc3[nH]ccc23)C1 [Compound 103, (R)-4-((1-(7H-pyrrolo[2,3-d]pyrimidin-4-yl)pyrrolidin-3-yl)(methyl)amino)-3-fluorobenzonitrile]"
9,50 to 100%,CN(c1cc(F)c(C#N)c(F)c1)[C@@H]1CCN(c2ncnc3[nH]ccc23)C1 [Compound 106]
10,20 to 50%,CN(C(=O)c1cccc(C#N)c1)[C@@H]1CCN(c2ncnc3[nH]ccc23)C1 [Compound 8]
11,50 to 100%,CN(c1ccc(C#N)c(Br)c1)[C@@H]1CCN(c2ncnc3[nH]ccc23)C1 [Compound 114]
12,20 to 50%,"CN(c1ccc(C(N)=O)cn1)[C@@H]1CCN(c2ncnc3[nH]ccc23)C1 [Compound 169, (R)-6-((1-(7H-pyrrolo[2,3-d]pyrimidin-4-yl)pyrrolidin-3-yl)(methyl)amino)nicotinamide]"
13,50 to 100%,CCN(c1ccc(C#N)cc1F)[C@@H]1CCN(c2ncnc3[nH]ccc23)C1 [Compound 133]
14,20 to 50%,CN(c1ccc([N+](=O)[O-])c(N)n1)[C@@H]1CCN(c2ncnc3[nH]ccc23)C1 [Compound 78]
15,50 to 100%,"CN(C(=O)Nc1cccc(C#N)c1)[C@@H]1CCN(c2ncnc3[nH]ccc23)C1 [Compound 16, (R)-1-(1-(7H-pyrrolo[2,3-d]pyrimidin-4-yl)pyrrolidin-3-yl)-3-(3-cyanophenyl)-1-methylurea]"
16,20 to 50%,CN([C@@H]1CCN(c2ncnc3[nH]ccc23)C1)S(=O)(=O)c1ccc(C#N)cc1 [Compound 9]
17,20 to 50%,CNC(=O)c1ccc(N(C)[C@@H]2CCN(c3ncnc4[nH]ccc34)C2)nc1 [Compound 175]
18,50 to 100%,Cc1cc(Cl)nc(N(C)[C@@H]2CCN(c3ncnc4[nH]ccc34)C2)c1C#N [Compound 73]
19,20 to 50%,C#CCN(c1ccc(C#N)cc1F)[C@@H]1CCN(c2ncnc3[nH]ccc23)C1 [Compound 130]
20,50 to 100%,CN(c1ccc(C#N)cc1)[C@@H]1CCN(c2ncnc3[nH]ccc23)C1 [Compound 104]

# Same assay, conditions: read-out: inhibition percentage (IR %)
row,SMILES,inhibition at 0.3 µM
1,"CN(c1ccc(C(=O)O)cn1)[C@@H]1CCN(c2ncnc3[nH]ccc23)C1 [Compound 170, (R)-6-((1-(7H-pyrrolo[2,3-d]pyrimidin-4-yl)pyrrolidin-3-yl)(methyl)amino)nicotinic acid]",50 to 100%
2,"C#Cc1ccc(N(C)[C@@H]2CCN(c3ncnc4[nH]ccc34)C2)nc1 [Compound 162, (R)—N-(1-(7H-pyrrolo[2,3-d]pyrimidin-4-yl)pyrrolidin-3-yl)-5-ethynyl-N-methylpyridin-2-amine]",50 to 100%
